Where two headings read alike, the source gives them in different places.
Assays:
5-HT2A receptor = 5-HT2A receptor (Homo sapiens (Human), UniProt P28223); assay: Radioligand-receptor binding assay, 5-HT2A receptor ([3H]-Ketanserin); details: [3H]-Ketanserin 2 nM, human 5-HT2A receptor membrane; read-out: 5HT-2A binding activity IC50
Experimental: Determination of the Binding Ability of the Compounds of the Present Invention to 5-HT2A Receptor
The objective of this test example is to determine the affinity of the compounds for 5-HT2A receptor.
Assay buffer: 50 mM Tris-HCl pH 7.4, 4 mM CaCl2); wash solution: 50 mM Tris-HCl pH 7.4, stored at 4° C.; 0.5% PEI solution: 0.5 g PEI dissolve in 100 mL ddH2O, 4° C. storage of spare.
5 μL of the test compounds (0.005 nM to 100 nM, 10 concentrations in total) and 100 μL of buffer were added to a 96-well assay plate. 1.5 μL of cell membrane and 300 L of buffer were added to each well. The plate was shaken at 600 rpm for 5 min. A mixed solution of 100 μL of buffer and [^3H]-Ketanserin (the final concentration was 2 nM) was added to each well. The plate was shaken at 600 rpm for 5 min, and incubated at 27° C. for 30 min. The […]-96 GF/B filter plate pre-incubated with 0.5% PEI for 1 h was washed twice with the buffer (1 mL/well). The cell membrane suspension was added to the […]-96 GF/B filter plate, washed 4 times, and incubated at 55° C. for 10 min. 40 μL of ULTIMA GOLD was added to each well, and liquid scintillation counting was carried out.
(§1) The CPM (Counts per minute) values were determined by TopCount. […] The 10 concentrations of the compound were from 100 nM to 0.005 nM after 3-fold dilution of the reaction system. The percent inhibition rate and ten-point concentration data were fitted to the parametric nonlinear logistic equation by using GraphPad prism to calculate the IC50 values of the compound.

[1] = Pharmacokinetic assay in Balb/c mice (plasma and brain tissue); assay type: in vivo; details: p.o. 5 mg/kg; for AUC(0-t) / AUC(0-inf) / Cmax / MRT / half-life: male, Balb/c, mouse, po; for AUC(0-t): read-out: Area under curve AUC0-t; for AUC(0-inf): read-out: Area under curve AUC0-∞; for Cmax: read-out: Plasma concentration Cmax; for MRT: read-out: Average residence time MRT; for half-life: read-out: Half life t1/2 (converted)
Experimental: III. Pharmacokinetic Assay in Balb/c Mice
Balb/c mice were used as test animals. The pharmacokinetic behavior of the compounds of Examples of the present invention was studied in mouse body (plasma and brain tissue) by orally administration at a dose of 5 mg/kg.
Male Balb/c mice (12 mice per group), purchased from Shanghai Jiesijie Laboratory Animal Co., LTD, with Certificate No.: SCXK (Shanghai) 2013-0006 N0.311620400001794. • 2.3 Formulation of the preparation: […]
The test compound was dissolved in 0.5% CMC-Na (1% Tween80) by sonication to formulate a clear solution or homogeneous suspension. • 2.4 Administration:
After an overnight fast, male Balb/c mice (12 mice per group) were administered p.o. with the test compound at a dose of 5 mg/kg and a volume of 10 mL/kg. • 2.5 Sample collection:
0.2 mL of blood was taken from the heart of the mouse before administration and at 1, 2, 4, 8 and 24 hours after administration, and the mice were sacrificed with CO2. The samples were stored in EDTA-K2 tubes, and centrifuged for 6 minutes at 4° C., 6000 rpm to separate the plasma. The plasma samples were stored at −80° C. Whole brain tissue was taken out, weighed, placed in a 2 mL centrifuge tube, and stored at −80° C. • 2.6 Sample process:
1) 160 μL of acetonitrile was added to 40 μL of the plasma sample for precipitation, and then the mixture was centrifuged at 3500×g for 5 to 20 minutes.
2) 90 μL of acetonitrile containing internal standard (100 ng/mL) was added to 30 μL of the plasma and brain homogenate sample for precipitation, and then the mixture was centrifuged at 13000 rpm for 8 minutes.
3) 70 μL of water was added to 70 μL of the treated supernatant and mixed by vortex for 10 minutes. 20 μL of the solution was taken to analyze the concentration of the test compound by LC/MS/MS. LC/MS/MS analytical instrument: AB Sciex API 4000 Qtrap. • 2.7 Liquid chromatography analysis: • Liquid chromatography condition: Shimadzu LC-20AD pump • Chromatographic column: Agilent ZORBAX XDB-C18 (50×2.1 mm, 3.5 μm); Mobile phase: Eluent A was 0.1% formic acid in water, and Eluent B was acetonitrile • Flow rate: 0.4 mL/min • Elution time: 0-4.0 minutes the eluent is as follows:
The main parameters of pharmacokinetics were calculated by WinNonlin 6.1.

[2] = target: Human Dopamine D3 Receptor (Homo sapiens (Human), UniProt P35462); assay: Radioligand-receptor binding assay, dopamine D3 receptor ([3H]-methylspiperone); details: [3H]-methylspiperone 0.5 nM, human D3 receptor membrane
Experimental: Determination of the Binding Ability of the Compounds of the Present Invention to Dopamine D3 Receptor
The objective of this test example is to determine the affinity of the compounds for dopamine D3 receptor.
Assay buffer: 50 mM Tris-HCl pH 7.4, 10 mM MgCl2; wash solution: 50 mM Tris-HCl pH 7.4, stored at 4° C.; 0.5% PEI solution: 0.5 g PEI dissolve in 100 mL ddH2O, 4° C. storage of spare.
5 μL of the test compounds (0.005 nM to 100 nM, 10 concentrations in total) and 100 μL of buffer were added to a 96-well assay plate. 1 μL of cell membrane and 300 μL of buffer were added to each well, and the plate was shaken at 600 rpm for 5 min. A mixed solution of 100 μL of buffer and [^3H]-methylspiperone (the final concentration was 0.5 nM) was added to each well. The plate was shaken at 600 rpm for 5 min, and incubated at 27° C. for 30 min. The […]-96 GF/B filter plate pre-incubated with 0.5% PEI for 1 h was washed twice with the buffer (1 mL/well). The cell membrane suspension was added to the […]-96 GF/B filter plate, washed 4 times, and incubated at 55° C. for 10 min. 40 μL of ULTIMA GOLD was added to each well, and liquid scintillation counting was carried out.
as §1

Sequence of Human Dopamine D3 Receptor (P35462 whole entry): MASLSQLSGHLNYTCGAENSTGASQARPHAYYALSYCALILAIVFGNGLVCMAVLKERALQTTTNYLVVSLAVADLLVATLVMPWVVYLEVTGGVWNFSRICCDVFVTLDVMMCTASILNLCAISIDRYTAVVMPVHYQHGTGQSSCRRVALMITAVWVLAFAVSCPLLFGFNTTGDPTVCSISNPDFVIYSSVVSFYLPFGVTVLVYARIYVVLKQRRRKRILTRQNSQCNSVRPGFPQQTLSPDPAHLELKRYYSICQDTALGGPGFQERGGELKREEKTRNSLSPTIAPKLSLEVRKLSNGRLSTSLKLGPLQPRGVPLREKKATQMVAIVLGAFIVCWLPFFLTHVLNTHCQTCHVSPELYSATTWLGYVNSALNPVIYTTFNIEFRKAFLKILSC
Sequence of 5-HT2A receptor (P28223 whole entry): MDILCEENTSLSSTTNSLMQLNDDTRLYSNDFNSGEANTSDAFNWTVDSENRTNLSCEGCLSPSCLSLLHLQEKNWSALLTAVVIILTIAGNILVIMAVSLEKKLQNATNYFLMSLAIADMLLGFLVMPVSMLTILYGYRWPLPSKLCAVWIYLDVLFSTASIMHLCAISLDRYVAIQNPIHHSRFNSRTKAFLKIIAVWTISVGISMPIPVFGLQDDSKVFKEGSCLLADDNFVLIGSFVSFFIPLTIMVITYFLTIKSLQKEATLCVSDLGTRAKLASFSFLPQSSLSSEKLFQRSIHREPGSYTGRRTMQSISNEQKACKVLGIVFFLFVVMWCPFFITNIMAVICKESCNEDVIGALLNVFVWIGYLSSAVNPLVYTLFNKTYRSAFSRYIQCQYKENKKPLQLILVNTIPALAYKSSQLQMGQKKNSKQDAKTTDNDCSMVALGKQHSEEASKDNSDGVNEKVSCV

CC(C)(O)C(=O)N[C@H]1CC[C@H](CCN2CCN(c3cccc4sccc34)CC2)CC1 [Example 41, N-(Trans-4-(2-(4-(benzo[b]thiophen-4-yl)piperazin-1-yl)ethyl)cyclohexyl)-2-hydroxy-2-methylpropanamide]
IC50 (5-HT2A receptor): 0.43 nM
Peak time tmax ([1]; Brain): 1 h
Peak time tmax ([1]; Plasma): 1 h
AUC(0-t) ([1]; Brain): 8120 ng·h/mL
AUC(0-inf) ([1]; Brain): 13000 ng·h/mL
Cmax ([1]; Brain): 731 ng/mL
AUC(0-t) ([1]; Plasma): 5210 ng·h/mL
AUC(0-inf) ([1]; Plasma): 6370 ng·h/mL
MRT ([1]; Plasma): 13.5 h
half-life ([1]; Plasma): 10.2 h
Cmax ([1]; Plasma): 452 ng/mL
IC50 [2]: 1.03 nM

O=C(N[C@H]1CC[C@H](CCN2CCN(c3cccc4sccc34)CC2)CC1)C1(O)CC1 [Example 42, N-(Trans-4-(2-(4-(benzo[b]thiophen-4-yl)piperazin-1-yl)ethyl)cyclohexyl)-1-hydroxycyclopropane-1-carboxamide]
IC50 (5-HT2A receptor): 0.26 nM
Peak time tmax ([1]; Brain): 1 h
Peak time tmax ([1]; Plasma): 1 h
AUC(0-t) ([1]; Brain): 3610 ng·h/mL
AUC(0-inf) ([1]; Brain): 3890 ng·h/mL
Cmax ([1]; Brain): 330 ng/mL
AUC(0-t) ([1]; Plasma): 4240 ng·h/mL
AUC(0-inf) ([1]; Plasma): 4370 ng·h/mL
MRT ([1]; Plasma): 6.84 h
half-life ([1]; Plasma): 4.84 h
Cmax ([1]; Plasma): 477 ng/mL
IC50 [2]: 0.2 nM
